Data on 13 compounds can be found in patent publication EP0064445A1, “N-substituted 2,4-dialkoxybenzene sulfon amides” (CHOAY S.A., priority 1981, dated 1982).

The first test relates to souris SWISS. Briefly: Interaction with pentobarbital: pentobarbital sleep time in mice. The conditions noted are these: male SWISS mice, lots of 10; 200 mg/kg oral, 60 min before pentobarbital 40 mg/kg i.p. It is filed as in vivo. From the text:
Les essais sont réalisés sur des souris SWISS, EOPS de sexe mâle, pesant de 20 à 24 g, en provenance du centre d'élevage de LE GENEST.
Les animaux sont acclimatés au moins 8 jours à l'animalerie du laboratoire avant les essais.
Les lots sont de 10 souris par test et par produit.
A titre de produits de référence, pour effectuer les essais témoins, on a utilisé les trois substances suivantes : • - N-[(éthyl-1 pyrrolidinyl-2) méthy17méthoxy-2 sulfamoyl-5 benzamide connue sous la désignation sulpiride; • - N-[(éthyl-1 pyrrolidinyl-2)méthy17méthoxy-2 éthylsulfonyl-5 benzamide connue sous la désignation sultopride; • - N-(diéthylamino-2 éthyl) méthoxy-2 méthylsulfonyl-5 benzamide connue sous la désignation tiapride.
Les composés selon l'invention et les substances de référence sont administrés en suspension aqueuse dans l'eau ordinaire à 3% en gomme arabique pour la voie orale (tests d'interactions avec les barbituriques).
Le réactif pharmacologique à savoir le pentobarbital est administré en solution dans du soluté isotonique de NaCl.
Les volumes administrés sont de 0,5 ml d'une solution à 1,6 g/1 pour 20 g de poids corporel par voie intrapérito- néale (40 mg/kg).
Pour effectuer ces essais, on administre à des lots de 10 souris SWISS mâles les composés selon l'invention ou les produits de référence (à savoir sulpiride, sultopride ou tiapride) par voie orale à raison de 200 mg/kg. 60 minutes après l'ingestion des composés selon l'invention ou des produits de référence, on administre aux animaux le pentobarbital sous forme sodique tel que celui commercialisé sous la marque NEMBUTAL. On mesure ensuite : • - le temps d'endormissement, • - le temps de sommeil, et on détermine le paurcentage de variations en plus ou en moins du temps de sommeil. Les résultats de ces essais figurent dans le tableau II suivant.
`COc1cc(OC)c(S(=O)(=O)NCCN2CCCC2)cc1Cl` [Produit 882]: the “Temps de sommeil (pentobarbital)” value came out at 176 ± 21 mn.

As for `COc1cc(OC)c(S(=O)(=O)NCCN2CCCCC2)cc1Cl` [Produit 883], the “Temps de sommeil (pentobarbital)” value was found to be 176 ± 12 mn.

Regarding `COc1cc(OC)c(S(=O)(=O)NCCN2CCOCC2)cc1Cl` [Produit 884], the “Temps de sommeil (pentobarbital)” value came to 150 ± 24 mn.

In the case of `COc1cc(OC)c(S(=O)(=O)NCCCN2CCCCC2)cc1Cl` [Produit 888], the “Temps de sommeil (pentobarbital)” value came out at 140 ± 20 mn.

Consider `COc1cc(OC)c(S(=O)(=O)NCCCN2CCOCC2)cc1Cl` [Produit 889], for which the “Temps de sommeil (pentobarbital)” value is reported as 156 ± 15 mn.

For `COc1cc(OC)c(S(=O)(=O)NCCN2CCCC2)cc1Br` [Produit 926], the “Temps de sommeil (pentobarbital)” value amounted to 168 ± 30 mn.

With `COc1cc(OC)c(S(=O)(=O)NCCN2CCCCC2)cc1Br` [Produit 927], the “Temps de sommeil (pentobarbital)” value came to 169 ± 26 mn.

In the case of `COc1cc(OC)c(S(=O)(=O)NCCN2CCOCC2)cc1Br` [Produit 928], the “Temps de sommeil (pentobarbital)” value was determined as 165 ± 24 mn.

Turning to `COc1cc(OC)c(S(=O)(=O)NCCCN2CCCCC2)cc1Br` [Produit 932], the “Temps de sommeil (pentobarbital)” value is given as 142 ± 15 mn.

As to `COc1cc(OC)c(S(=O)(=O)NCCCN2CCOCC2)cc1Br` [Produit 933], the “Temps de sommeil (pentobarbital)” value amounted to 180 ± 32 mn.

Staying with this test, now noted: result in words; 200 mg/kg oral, mice.
On to `CCN1CCCC1CNC(=O)c1cc(S(N)(=O)=O)ccc1OC` (stereo not shown) [sulpiride, reference compound], for which the “effet sur le sommeil au pentobarbital” value was “tantôt potentialisateur, tantôt antagoniste”.

For the compound `CCN1CCCC1CNC(=O)c1cc(S(=O)(=O)CC)ccc1OC` (stereo not shown) [sultopride, reference compound], the “effet sur le sommeil au pentobarbital” value is reported as “potentialisateurs”.

On to `CCN(CC)CCNC(=O)c1cc(S(C)(=O)=O)ccc1OC` [tiapride, N-(diéthylamino-2 éthyl) méthoxy-2 méthylsulfonyl-5 benzamide, reference compound], for which the “effet sur le sommeil au pentobarbital” value was “potentialisateurs”.
